Patent publication US11547738B2, “Compositions and methods for treating fibrosis” (Cedars-Sinai Medical Center, priority 2014, dated 2023)
Entries after “also recorded” stand apart in the source; their conditions may differ.

Experiments:
[1] = system: mouse IL-4/IL-13-induced M2 polarization; experiment: in vitro titration assay of IL-4/IL-13-induced M2 polarization; assay type: cell-based; conditions: at 1 μM
Description: Antibodies and flow cytometry: All antibodies used for flow cytometry were purchased from Biolegend, unless indicated. For surface staining, murine cells were stained with the following antibodies: APC-CD45.2 (109814, 1:200), PE/Cy7-CD4 (100528, 1:300), Percp/Cy5.5-CD11b (101228, 1:200), BV421-F4/80 (123137, 1:200), APC/Cy7-CD11C (117324, 1:200), PE-IL-411.a (144803 1:100), AF488-CD206 (141710, 1:100), AF700-MHCII (107622, 1:300), PB-Ly6C (128014, 1:200), PE/Cy7-Ly-6G (127617, 1:300), PE-FcεRIα (134307, 1:200), AF488-ckit (105815, 1:200), APC-eFluor780-CD45.1 (47-0453-82, eBioscience, 1:200) and PE-Siglec-F (562068, BD Biosciences, 1:200). Human cells were stained with PE/Cy7-CD14 (301814,1:100), AF488-CD206 (321114, 1:50) and APC-CD68 (333810, 1:100). […]
Cell preparation and in vitro cultures: Pancreatic leukocytes were isolated using collagenase digestion method described previously for flow cytometry analysis (Xue, J., et al. Aryl hydrocarbon receptor regulates pancreatic IL-22 production and protects mice from acute pancreatitis. Gastroenterology 143, 1670-1680 (2012)). […] Isolated PSCs were ready for use after the second passage. […] On day 6, human macrophages are ready for use (Vijayan, D. Isolation and differentiation of monocytes-macrophages from human blood. Methods Mol. Biol. 844, 183-187 (2012)). […]

[2] = system: human macrophages; experiment: M2 polarization of human macrophages by hPSC conditioned medium; assay type: cell-based; conditions: hPSC_CM pretreated with 1 μM, 24 h; FIG. 6G
Method: IL-4/IL-13-blocking peptide (IL4/13BP i.p., 50 μg per mouse, 5 days per week) was administrated to mice 2 weeks after starting CP induction and mice were killed as previous after 4 weeks of caerulein injections. […] (unpaired two-tailed Student's t-test). […] Scale bar, 200 μm. […] Scale bar: 50 μm. FIG. 6D and FIG. 6E show RT-PCR analysis of α-SMA and Col1α1 (Collagen1A1) gene expression in the pancreas of indicated mice. Means±s.e.m. (unpaired two-tailed Student's t-test). […] Means±s.e.m. (unpaired two-tailed Student's t-test). In FIG. 6G human macrophages as above were cultured with control medium (Con), conditioned medium from hPSCs (hPSC_CM) or hPSC_CM pretreated with 1 μM IL4/13BP (hPSC_CM+BP) for 24h. Expression of CD206 (% CD206^+ macrophages) was analysed using flow cytometry.
Antibodies and flow cytometry: All antibodies used for flow cytometry were purchased from Biolegend, unless indicated. […]
Cell preparation and in vitro cultures: Pancreatic leukocytes were isolated using collagenase digestion method described previously for flow cytometry analysis (Xue, J., et al. Aryl hydrocarbon receptor regulates pancreatic IL-22 production and protects mice from acute pancreatitis. Gastroenterology 143, 1670-1680 (2012)). […] Isolated PSCs were ready for use after the second passage. […]

[3] = system: E0771 tumors; experiment: syngeneic E0771 tumor model with radiation therapy; assay type: in vivo, C57BL/6 mice; conditions: for response to radiation therapy (tumor volume): 50 μg in 100 μL PBS daily injection combined with RT 16 Gy, versus RT alone, FIG. 8A
Method: Syngeneic E0771 tumors were implanted in the lower mammary gland of C57BL/6 mice and allowed to grow to approximately […]. Mice were then enrolled on study (n=5/group) and treated with either PBS (Control), IL4/13 blocking peptide CSRM53567 (50 μg in 100 μL PBS, daily injection), radiation therapy (RT) alone (16 Gy) or combination of CSRM53567 peptide and RT. Mice were measured at the indicated time points with digital calipers and the resulting volume was calculated. ** p<0.01. […] There were fewer CD4+ T cells and more CD8+ T cells as a percentage of the CD45+ leukocytes in the tumors that received radiation therapy and the IL4/13 blocking peptide compared to radiation alone. […] The cytokines and CD45+ cells were all harvested at end point which is about two weeks post-RT.

[4] = system: caerulein-induced CP mice; experiment: caerulein-induced chronic pancreatitis (CP) mouse model; assay type: in vivo; conditions: for pancreas fibrosis (relative pancreas weight, H&E, Trichrome, α-SMA, Collagen1A1) / alternative activation of pancreatic macrophages (CD206 expression, flow cytometry): established CP; for pancreas fibrosis (relative pancreas weight, H&E, Trichrome, α-SMA, Collagen1A1): FIG. 6A-6E; for alternative activation of pancreatic macrophages (CD206 expression, flow cytometry): FIG. 6F
Description: As indicated herein, agents that inhibit IL-4/IL-13 receptor function such as CRSM53567 will have benefit in several fibrosis and cancer diseases. In this design a commonly used model to cause chronic pancreatitis in rodents was created. In this model, the animal is given the cholecystokinin analogue, Caerulein, as a set of 6 intraperitoneal injections over a day repeated 3 times a week for 4 weeks. […] CD206 is a marker of the type II macrophage while MHCII is highly expressed on type I macrophage.
Pancreatitis model and treatment: AP was induced with caerulein injection in mice as previously described (Xue, J., et al. Aryl hydrocarbon receptor regulates pancreatic IL-22 production and protects mice from acute pancreatitis. Gastroenterology 143, 1670-1680 (2012); Xue, J. & Habtezion, A. Carbon monoxide-based therapy ameliorates acute pancreatitis via TLR4 inhibition. J. Clin. Invest. 124, 437-447 (2014)). CP was induced by repetitive caerulein injections (Lerch, M. M. & Gorelick, F. S. Models of acute and chronic pancreatitis. Gastroenterology 144, 1180-1193 (2013); Treiber, M. et al. Myeloid, but not pancreatic, RelA/p65 is required for fibrosis in a mouse model of chronic pancreatitis. Gastroenterology 141, e1471-e1477 (2011)). In brief, mice were given six hourly intraperitoneal (i.p.) injections of 50-μg kg^−1 body weight caerulein (Sigma-Aldrich) 3 days per week, for a total of 4 weeks. Mice were then killed and analyzed 3 days after the last caerulein injection. For blocking peptide study all mice were given caerulein injection 3 days per week for a total of 4 weeks as above, and 2 weeks following start of the caerulein injection mice were either given vehicle control (PBS) or IL-4/IL-13-blocking peptide ([…], 100 μl daily for 5 days per week×2 weeks) until being killed 4 weeks and 3 days later as above.
Histology and immunofluorescence: Mice were killed by CO2 inhalation, and then their pancreata were rapidly removed. Pancreas pieces were immediately fixed in 10% formalin or frozen in Tissue-Tek OCT compound. Fixed tissues were sectioned and used for haemotoxylin and eosin and Trichrome staining (performed in the Histo-Tec Laboratory). Frozen tissues were also sectioned for immunofluorescence staining with indicated antibodies and analyzed with confocal microscopy.
Antibodies and flow cytometry: All antibodies used for flow cytometry were purchased from Biolegend, unless indicated. For surface staining, murine cells were stained with the following antibodies: APC-CD45.2 (109814, 1:200), PE/Cy7-CD4 (100528, 1:300), Percp/Cy5.5-CD11b (101228, 1:200), BV421-F4/80 (123137, 1:200), APC/Cy7-CD11C (117324, 1:200), PE-IL-411.a (144803 1:100), AF488-CD206 (141710, 1:100), AF700-MHCII (107622, 1:300), PB-Ly6C (128014, 1:200), PE/Cy7-Ly-6G (127617, 1:300), PE-FcεRIα (134307, 1:200), AF488-ckit (105815, 1:200), APC-eFluor780-CD45.1 (47-0453-82, eBioscience, 1:200) and PE-Siglec-F (562068, BD Biosciences, 1:200). Human cells were stained with PE/Cy7-CD14 (301814,1:100), AF488-CD206 (321114, 1:50) and APC-CD68 (333810, 1:100). For intracellular cytokine staining, cells were activated with phorbol myristate acetate (50 ng ml^−1) and ionomycin (1 μg ml^−1), in the presence of brefeldin A (10 μg ml^−1, eBioscience) for 4h at 37° C. before staining. The cells were then fixed and permeabilized using the eBioscience kit following the manufacturer's guidelines. APC-IL10 (554468, 1:100) and isotype control (556924, 1:100) from BD Biosciences were used for intracellular staining. For intracellular TNFα staining, cells were incubated with or without lipopolysaccharide (100 ngml-1, InvivoGen) in the presence of brefeldin A before surface-staining. PE-TNFα (554419, 1:200) and isotype control (554685, 1:200) from BD Biosciences were used.
Quantitative RT-PCR: Th pancreas or cells were lysed with Trizol reagent (Invitrogen) for total RNA preparation according to the manufacturer's instructions. […]

[5] = RT plus peptide compared to radiation alone, about two weeks post-RT
[6] = chronic pancreatitis mouse model, preliminary results, FIG. 1
[7] = i.p. 50 μg per mouse, 5 days per week, started 2 weeks after starting CP induction
[8] = i.p. 50 μg per mouse, 5 days per week, started 2 weeks after starting CP induction, listed as IL-4/13-blocking peptide

TYR-CYS-ASP-ASP-PHE-VAL-GLY-SER-PHE-ASP-CYS-TYR (YCDDFVGSFDCY) [CSRM53567]
mouse IL-4/IL-13-induced M2 polarization and CD206 expression [1]: significantly decreased
hPSC-mediated M2 polarization of human macrophages (% CD206+ macrophages) [2]: capable of inhibiting
response to radiation therapy (tumor volume) [3]: enhances response to radiation therapy
response to radiation therapy (tumor volume) ([3]; listed as IL-4/IL-13 blocking peptide): enhances the response to radiation therapy
number of CD8+ T cells post radiation therapy ([3]; FIG. 8B): enhances the number of CD8+ T cells
CD4+ T cells as a percentage of the CD45+ leukocytes in the tumors [3, 5]: fewer
CD8+ T cells as a percentage of the CD45+ leukocytes in the tumors [3, 5]: more
absolute number of CD45+ leukocytes [3, 5]: remained roughly the same
macrophages in the tissue (FACS) ([4]; chronic pancreatitis mouse model, caerulein 3 times a week for 4 weeks, preliminary results, FIG. 1B): decreases; also recorded: reduces
fibrosis [4, 6]: decreased fibrosis; also recorded: reduces
tissue volume / pancreas shrinkage [4, 6]: increase; also recorded: preventing pancreas shrinkage
pancreas fibrosis (relative pancreas weight, H&E, Trichrome, α-SMA, Collagen1A1) [4, 7]: limited pancreas fibrosis
pancreas fibrosis (relative pancreas weight, H&E, Trichrome, α-SMA, Collagen1A1) [4, 8]: ameliorated
alternative activation of pancreatic macrophages (CD206 expression, flow cytometry) [4, 7]: blockade of alternative activation
alternative activation of pancreatic macrophages (CD206 expression, flow cytometry) [4, 8]: decreased
established CP ([4]; i.p. 50 μg per mouse, 5 days per week, started 2 weeks after starting CP induction, FIG. 6): ameliorates established CP
